# Assay results as given in patent US10450316B2, “Certain protein kinase inhibitor” (Chongqing Fochon Pharmaceutical Co., Ltd., priority 2015, dated 2019).
# Test system: BE(2)-C cell
# Assay: Cell proliferation assay (MTS) in BE(2)-C cells
# Type: cell-based
# Settings: Homo sapiens, inhibition of BE(2)-C cell proliferation, 48 h
# Procedure, shortened: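 BE(2)-C cells (3000/well, DMEM + 10% FBS) were treated for 48 h at 37 °C with compound at 1.5–10000 nM in nine concentrations. Viability was measured by MTS (2 h, stopped with SDS) at 490/650 nm, and IC50 was calculated from the dose-response.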
row,Compound,IC50 [µM]
1,"CC1(C)CCc2nc3c(F)cc(-c4nc(Nc5ccc(CN6CCC7(CCNCC7)CC6)cn5)ncc4F)cc3n21 [Example 120, N-(5-((3,9-diazaspiro[5.5]undecan-3-yl)methyl)pyridin-2-yl)-5-fluoro-4-(5-fluoro-1,1-dimethyl-2,3-dihydro-1H-benzo[d]pyrrolo[1,2-a]imidazol-7-yl)pyrimidin-2-amine]",> 0.1
2,"CN1CCC2(CC1)CCN(Cc1ccc(Nc3ncc(F)c(-c4cc(F)c5nc6n(c5c4)C(C)(C)CC6)n3)nc1)CC2 [Example 121, 5-fluoro-4-(5-fluoro-1,1-dimethyl-2,3-dihydro-1H-benzo[d]pyrrolo[1,2-a]imidazol-7-yl)-N-(5-((9-methyl-3,9-diazaspiro[5.5]undecan-3-yl)methyl)pyridin-2-yl)pyrimidin-2-amine]",> 0.1
3,"CCN1CCC2(CC1)CCN(Cc1ccc(Nc3ncc(F)c(-c4cc(F)c5nc6n(c5c4)C(C)(C)CC6)n3)nc1)CC2 [Example 122, N-(5-((9-ethyl-3,9-diazaspiro[5.5]undecan-3-yl)methyl)pyridin-2-yl)-5-fluoro-4-(5-fluoro-1,1-dimethyl-2,3-dihydro-1H-benzo[d]pyrrolo[1,2-a]imidazol-7-yl)pyrimidin-2-amine]",0.01 to 0.1
4,"CC1(C)CCc2nc3c(F)cc(-c4nc(Nc5ccc(CN6CC7CNCC7C6)cn5)ncc4F)cc3n21 (centres unmarked) [Example 123, 5-fluoro-4-(5-fluoro-1,1-dimethyl-2,3-dihydro-1H-benzo[d]pyrrolo[1,2-a]imidazol-7-yl)-N-(5-((hexahydropyrrolo[3,4-c]pyrrol-2(1H)-yl)methyl)pyridin-2-yl)pyrimidin-2-amine]",> 0.1
5,"CN1CC2CN(Cc3ccc(Nc4ncc(F)c(-c5cc(F)c6nc7n(c6c5)C(C)(C)CC7)n4)nc3)CC2C1 (centres unmarked) [Example 124, 5-fluoro-4-(5-fluoro-1,1-dimethyl-2,3-dihydro-1H-benzo[d]pyrrolo[1,2-a]imidazol-7-yl)-N-(5-((5-methylhexahydropyrrolo[3,4-c]pyrrol-2(1H)-yl)methyl)pyridin-2-yl)pyrimidin-2-amine]",0.01 to 0.1
6,"CCN1CC2CN(Cc3ccc(Nc4ncc(F)c(-c5cc(F)c6nc7n(c6c5)C(C)(C)CC7)n4)nc3)CC2C1 (centres unmarked) [Example 125, N-(5-((5-ethylhexahydropyrrolo[3,4-c]pyrrol-2(1H)-yl)methyl)pyridin-2-yl)-5-fluoro-4-(5-fluoro-1,1-dimethyl-2,3-dihydro-1H-benzo[d]pyrrolo[1,2-a]imidazol-7-yl)pyrimidin-2-amine]",0.01 to 0.1
7,"CC1(C)CCc2nc3c(F)cc(-c4nc(Nc5ccc(CN6C7CCC6CNC7)cn5)ncc4F)cc3n21 [Example 126, N-(5-((3,8-diazabicyclo[3.2.1]octan-8-yl)methyl)pyridin-2-yl)-5-fluoro-4-(5-fluoro-1,1-dimethyl-2,3-dihydro-1H-benzo[d]pyrrolo[1,2-a]imidazol-7-yl)pyrimidin-2-amine]",0.01 to 0.1
8,"CN1CC2CCC(C1)N2Cc1ccc(Nc2ncc(F)c(-c3cc(F)c4nc5n(c4c3)C(C)(C)CC5)n2)nc1 [Example 127, 5-fluoro-4-(5-fluoro-1,1-dimethyl-2,3-dihydro-1H-benzo[d]pyrrolo[1,2-a]imidazol-7-yl)-N-(5-((3-methyl-3,8-diazabicyclo[3.2.1]octan-8-yl)methyl)pyridin-2-yl)pyrimidin-2-amine]",< 0.01
9,"CCN1CC2CCC(C1)N2Cc1ccc(Nc2ncc(F)c(-c3cc(F)c4nc5n(c4c3)C(C)(C)CC5)n2)nc1 [Example 128, N-(5-((3-ethyl-3,8-diazabicyclo[3.2.1]octan-8-yl)methyl)pyridin-2-yl)-5-fluoro-4-(5-fluoro-1,1-dimethyl-2,3-dihydro-1H-benzo[d]pyrrolo[1,2-a]imidazol-7-yl)pyrimidin-2-amine]",< 0.01
10,"CC1(C)CCc2nc3c(F)cc(-c4nc(Nc5ccc(CN6CC7CCC(C6)N7)cn5)ncc4F)cc3n21 [Example 129, N-(5-((3,8-diazabicyclo[3.2.1]octan-3-yl)methyl)pyridin-2-yl)-5-fluoro-4-(5-fluoro-1,1-dimethyl-2,3-dihydro-1H-benzo[d]pyrrolo[1,2-a]imidazol-7-yl)pyrimidin-2-amine]",0.01 to 0.1
11,"CN1C2CCC1CN(Cc1ccc(Nc3ncc(F)c(-c4cc(F)c5nc6n(c5c4)C(C)(C)CC6)n3)nc1)C2 [Example 130, 5-fluoro-4-(5-fluoro-1,1-dimethyl-2,3-dihydro-1H-benzo[d]pyrrolo[1,2-a]imidazol-7-yl)-N-(5-((8-methyl-3,8-diazabicyclo[3.2.1]octan-3-yl)methyl)pyridin-2-yl)pyrimidin-2-amine]",0.01 to 0.1
12,"CCN1C2CCC1CN(Cc1ccc(Nc3ncc(F)c(-c4cc(F)c5nc6n(c5c4)C(C)(C)CC6)n3)nc1)C2 [Example 131, N-(5-((8-ethyl-3,8-diazabicyclo[3.2.1]octan-3-yl)methyl)pyridin-2-yl)-5-fluoro-4-(5-fluoro-1,1-dimethyl-2,3-dihydro-1H-benzo[d]pyrrolo[1,2-a]imidazol-7-yl)pyrimidin-2-amine]",0.01 to 0.1
13,"Fc1cnc(Nc2ccc(CN3CC4CC(C3)N4)cn2)nc1-c1cc(F)c2nc3n(c2c1)C1(CC3)CC1 [Example 132, N-(5-((3,6-diazabicyclo[3.1.1]heptan-3-yl)methyl)pyridin-2-yl)-5-fluoro-4-(5-fluoro-2,3-dihydrospiro[benzo[d]pyrrolo[1,2-a]imidazole-1,1′-cyclopropan]-7-yl)pyrimidin-2-amine]",> 0.1
14,"CN1C2CC1CN(Cc1ccc(Nc3ncc(F)c(-c4cc(F)c5nc6n(c5c4)C4(CC6)CC4)n3)nc1)C2 [Example 133, 5-fluoro-4-(5-fluoro-2,3-dihydrospiro[benzo[d]pyrrolo[1,2-a]imidazole-1,1′-cyclopropan]-7-yl)-N-(5-((6-methyl-3,6-diazabicyclo[3.1.1]heptan-3-yl)methyl)pyridin-2-yl)pyrimidin-2-amine]",0.01 to 0.1
15,"CCN1C2CC1CN(Cc1ccc(Nc3ncc(F)c(-c4cc(F)c5nc6n(c5c4)C4(CC6)CC4)n3)nc1)C2 [Example 134, N-(5-((6-ethyl-3,6-diazabicyclo[3.1.1]heptan-3-yl)methyl)pyridin-2-yl)-5-fluoro-4-(5-fluoro-2,3-dihydrospiro[benzo[d]pyrrolo[1,2-a]imidazole-1,1′-cyclopropan]-7-yl)pyrimidin-2-amine]",> 0.1
16,"Fc1cnc(Nc2ccc(CN3C[C@@H]4C[C@H]3CN4)cn2)nc1-c1cc(F)c2nc3n(c2c1)C1(CC3)CC1 [Example 135, N-(5-(((1S,4S)-2,5-diazabicyclo[2.2.1]heptan-2-yl)methyl)pyridin-2-yl)-5-fluoro-4-(5-fluoro-2,3-dihydrospiro[benzo[d]pyrrolo[1,2-a]imidazole-1,1′-cyclopropan]-7-yl)pyrimidin-2-amine]",> 1
17,"CN1C[C@@H]2C[C@H]1CN2Cc1ccc(Nc2ncc(F)c(-c3cc(F)c4nc5n(c4c3)C3(CC5)CC3)n2)nc1 [Example 136, 5-fluoro-4-(5-fluoro-2,3-dihydrospiro[benzo[d]pyrrolo[1,2-a]imidazole-1,1′-cyclopropan]-7-yl)-N-(5-(((1S,4S)-5-methyl-2,5-diazabicyclo[2.2.1]heptan-2-yl)methyl)pyridin-2-yl)pyrimidin-2-amine]",> 0.1
